According to patent publication US11369609B2, “Small molecule Wnt inhibitor as treatment for dyslipidemia” (Yale University, priority 2019, dated 2022):

Assays:
[1] = system: canonical Wnt signaling pathway; test: qPCR of canonical Wnt-dependent genes in Wnt3a-treated MLECs; type: cell-based, mouse
Description: ChIP DNA or total RNA was used for qPCR. Total RNA was isolated using standard Trizol protocol. RNA was reverse transcribed using the iScript cDNA Synthesis kit (Bio-Rad) and qPCR was performed on a Bio-Rad C1000 Touch thermal cycler using the resultant cDNA, qPCR master mix and gene specific primers. The following primers were used: […]
MLECS were cultured and starved for 4 hours in 0.5% FBS. Cells were treated for 4 hours with Wnt3a (200 ng/ml).
To further examine the specificity of GR in this interaction, a similar experiment in GR siRNA-treated cells was performed.

kidney endothelial cells = test: Fatty acid oxidation (14CO2 release from [14C]palmitate) in isolated kidney endothelial cells; type: in vivo, mice; conditions: for FAO, as measured by 14CO2 release: diabetic CD-1 mice treated for 4 weeks
Description: Endothelial cells from the kidneys of non-diabetic and diabetic mice were isolated using a standardized kit (Miltenyl Biotech, USA) by following the manufacturer's instructions. Briefly, kidneys were isolated and minced into small pieces. Using a series of enzymatic reactions by treating the tissue with trypsin and Collagenase type I solution, a single cell suspension was created. The pellet was dissolved with CD31 magnetic beads and the CD31-labelled cells were separated on a magnetic separator. The cells were further purified on a column. Cell number was counted by hemocytometer and cells were plated on 0.1% gelatin coated Petri dishes.
Cultured isolated kidney endothelial cells were incubated with medium containing 0.75 mmol/L palmitate (conjugated to 2% free fatty acid-free BSA/[^14C] palmitate at 2 μCi/mL) for 2 h. One mL of the culture medium was transferred to a sealable tube, the cap of which housed a Whatman filter paper disc. ^14CO2 trapped in the media was then released by acidification of media using 60% perchloric acid. Radioactivity that had become adsorbed onto the filter discs was then quantified by liquid scintillation counting.
It is increasingly recognized that defects in central metabolism contribute to kidney fibrosis (69, 76). Defective FA metabolism in EC leads to EndMT events (77). To investigate whether FA metabolism was deranged in the model, radiolabeled [^14C]palmitate uptake experiments were performed in isolated EC from mouse kidneys. FA uptake was higher in isolated EC from the diabetic kidneys of the more fibrotic strain (diabetic CD-1) when compared to kidney EC from the less-fibrotic strain (diabetic C57BL/6). […] FA oxidation (FAO) was also assessed by measuring the ^14CO2 release from radiolabeled [^14C]palmitate in cultured EC isolated from kidneys. […] In the next set of experiments, diabetic CD-1 mice were treated with the FA synthase inhibitor C75, the FAO inhibitor etomoxir, the PPARα agonist fenofibrate, and the cholesterol-lowering drug simvastatin for 4 weeks. […] (FIG. 23A). Fenofibrate and C75 restored the level of GR protein in CD31 positive cells, whereas etomoxir and simvastatin suppressed it (FIG. 23B).

diabetic CD-1 mice = test: FA metabolism modulators and simvastatin in diabetic CD-1 mice (renal fibrosis); type: in vivo; conditions: for fibrogenic phenotype / level of fibrosis in kidneys / fibronectin mRNA level in diabetic kidneys / level of GR protein in CD31 positive cells / αSMA mRNA level in diabetic kidneys: diabetic CD-1 mice treated for 4 weeks; for CPT1a level / β-catenin level: diabetic CD-1 mice, kidney immunohistochemistry
Description: (§1) All experiments were performed in accordance with the National Institute of Health (NIH) Guidelines for the Care of Laboratory Animals. Mice lacking the endothelial glucocorticoid receptor (GR) (known as GR^ECKO) and those lacking this receptor on the Apo E null background (DKO) were generated as previously described (6). The induction of diabetes in CD-1 mice and C57B/L6 mice was performed according to previously established experimental protocols (38-42). Briefly, diabetes was induced in 10-week-old GR^ECKO mice with five consecutive intraperitoneal (IP) doses of streptozotocin (STZ) 50 mg/kg in 10 mmol/L citrate buffer (pH 4.5). Wnt inhibitor (LGK974) was provided to GR^ECKO and control littermate at 5 mg/kg at a frequency of six doses per week for 8 weeks (43). Etomoxir (20 mg/kg) and c75 (15 mg/kg) were dosed (ip) three times per week for 3 weeks in the GR^ECKO and control littermate. A single IP dose of 200 mg/kg STZ was used to induce diabetes in CD-1 mice. Fenofibrate (100 mg/kg), simvastatin (40 mg/kg), were dosed orally for 4 weeks in diabetic CD-1 mice. All mice were sacrificed after 4 weeks of treatment and tissues and blood were harvested. Urine albumin levels were assayed using a Mouse Albumin ELISA Kit (Exocell, Philadelphia, Pa.).
(§2) A point-counting method was utilized to evaluate the relative area of the mesangial matrix. PAS-stained glomeruli from each mouse were analyzed using a digital microscope screen grid containing 540 (27×20) points. Masson's trichrome-stained images were evaluated by ImageJ software, and the fibrotic areas were estimated.
(§3) Deparaffinized sections were incubated with picrosirius red solution for 1 hour at room temperature. The slides were washed twice with acetic acid solution for 30 seconds per wash. The slides were then dehydrated in absolute alcohol three times, cleared in xylene, and mounted with a synthetic resin. Sirius red staining was analyzed using ImageJ software, and fibrotic areas were quantified.
(§4) Paraffin-embedded kidney sections (5 μm thick) were deparaffinized and rehydrated (2 min in xylene, four times; 1 min in 100% ethanol, twice; 1 min in 95% ethanol; 45 s in 70% ethanol; and 1 min in distilled water), and the antigen was retrieved in a 10 mM citrate buffer pH 6 at 98° C. for 60 min. To block the endogenous peroxidase, all sections were incubated in 0.3% hydrogen peroxide for 10 min. The immunohistochemistry was performed using a Vectastain ABC Kit (Vector Laboratories, Burlingame, Calif.). Mouse anti-[…] antibody (1:100) and CPT1a (Abnova; H00001374-DO1P; 1:100) antibody was used. In the negative controls, the primary antibody was omitted and replaced with the blocking solution.
Frozen kidney sections (5 μm) were used for immunofluorescence; double positive labeling with CD31/αSMA, CD31/TGFβR1 and E-cadherin/αSMA was measured. Briefly, frozen sections were dried and placed in acetone for 10 min at −30° C. Once the sections were dried, they were washed twice in phosphate-buffered saline (PBS) for 5 min and then blocked in 2% bovine serum albumin/PBS for 30 min at room temperature. Thereafter, the sections were incubated in primary antibody (1:100) for 1 hour and washed in PBS (5 min) three times. Next, the sections were incubated with the secondary antibodies for 30 min, washed with PBS three times (5 min each), and mounted with mounting medium with DAPI (Vector Laboratories, Burlingame, Calif.). The immune-labeled sections were analyzed by fluorescence microscopy. For each mouse, original magnification of ×400 pictures were obtained from six different areas, and quantification was performed.
Total RNA was isolated using standard Trizol protocol. RNA was reverse transcribed using the iScript cDNA Synthesis kit (Bio-Rad) and qPCR was performed on a Bio-Rad C1000 Touch thermal cycler using the resultant cDNA, as well as qPCR Master mix and gene specific primers.
It is increasingly recognized that defects in central metabolism contribute to kidney fibrosis (69, 76). […]

[2] = system: diabetic GR^ECKO mice and control littermates; test: Etomoxir and C75 in diabetic control littermates and diabetic GR^ECKO mice; type: in vivo; conditions: for body weight: diabetic control littermates and GR^ECKO mice, ip three times per week for 3 weeks
Description: as §1, §2, §3, §4
Etomoxir and C75 were also tested in the diabetic control littermates and diabetic GR^ECKO mice. […] (FIG. 17D-E).

[3] = Wnt3a-conditioned media 6 hours, then DEX 100 nM 1 hour

## Wnt3a
[1]; Wnt3a 200 ng/ml 4 hours, GR knockdown
  sox17 expression, effect of Wnt3a in GR siRNA-treated cells: augmented
[1]; Wnt3a-conditioned media, MLECs
  sox17 expression, effect of Wnt3a: induced

## C[C@@H]1C[C@H]2[C@@H]3CCC4=CC(=O)C=C[C@]4(C)[C@@]3(F)[C@@H](O)C[C@]2(C)[C@@]1(O)C(=O)COP(=O)(O)O [DEX, Dexamethasone phosphate]
[1]; Wnt3a 200 ng/ml 4 hours, DEX 100 nM 1 hour
  sox17 expression, control siRNA vs GR siRNA cells: suppressed sox17 expression to a much greater extent in control-siRNA treated cells than in GR siRNA-treated cells
[1]; [3]
  axin2 expression: a similar pattern was observed
  sox17 expression: suppressed expression

## CCOC(=O)[C@@]1(CCCCCCOc2ccc(Cl)cc2)CO1 [etomoxir]
Kidney endothelial cells
  FAO, as measured by 14CO2 release: significant suppression
Kidney endothelial cells; diabetic GR^ECKO mice
  FAO in kidney EC: significant suppression in FAO
Kidney endothelial cells; diabetic control littermates
  FAO in kidney EC: significant suppression in FAO
Diabetic CD-1 mice
  fibrogenic phenotype / level of fibrosis in kidneys: exacerbated the fibrosis
  fibronectin mRNA level in diabetic kidneys: upregulated
  level of GR protein in CD31 positive cells: suppressed
  αSMA mRNA level in diabetic kidneys: upregulated
  CPT1a level: significant suppression
  β-catenin level: induced
[2]; diabetic GR^ECKO mice
  CPT1a level in kidneys: suppressed the CPT1a level
  level of β-catenin in kidneys: increased the expression level of β-catenin
  renal fibrogenic phenotype: accelerated the renal fibrogenic phenotype
[2]
  body weight: no significant differences
[2]; diabetic control mice
  CPT1a level in kidneys: suppressed the CPT1a level
  level of β-catenin in kidneys: increased the expression level of β-catenin
  renal fibrogenic phenotype: accelerated the renal fibrogenic phenotype

## C=C1C(=O)OC(CCCCCCCC)C1C(=O)O (stereo not shown) [C75]
Kidney endothelial cells
  FAO, as measured by 14CO2 release: increased the level of FAO
Kidney endothelial cells; diabetic GR^ECKO mice
  FAO in kidney EC: unable to rescue the level of FAO
Kidney endothelial cells; diabetic control littermates
  FAO in kidney EC: restored FAO
Diabetic CD-1 mice
  fibrogenic phenotype / level of fibrosis in kidneys: ameliorated the fibrogenic phenotype
  fibronectin mRNA level in diabetic kidneys: downregulated
  level of GR protein in CD31 positive cells: restored
  αSMA mRNA level in diabetic kidneys: downregulated
  CPT1a level: induced the level of CPT1a
  β-catenin level: suppressed the level of β-catenin
[2]
  body weight: no significant differences
[2]; diabetic control mice
  CPT1a level in kidneys: restored CPT1a
  level of β-catenin in kidneys: completely diminished the level of β-catenin
  renal fibrogenic phenotype: clearly abolished the renal fibrogenic phenotype
